Measurements as given in patent US20260248771A1, “VALBENAZINE, A VMAT2 INHIBITOR, AS A FREE BASE A TOSYLATE OR DITOSYLATE SALT, FOR USE IN THE TREATMENT OF CHOREA ASSOCIATED WITH HUNTINGTON'S DISEASE” (Neurocrine Biosciences, Inc., priority 2022, published 2026).

Assays:
Type in all cases: in vivo, human
subjects with HD [1] = assay: Phase 3 study: Neuro-QoL Upper Extremity Function T-score
Text: As used herein, “Neuro-QoL” is a set of self-report measures that assesses the health-related quality of life (HRQOL) of adults and children with neurological disorders. Neuro-QoL Upper Extremity Function scale measures one's ability across fine motor and activities of daily living involving digital, manual and reach-related function and self-care. Neuro-QoL Lower Extremity Function scale measures one's ability to carry out various activities involving the trunk region and increasing degrees of bodily movement, ambulation, balance or endurance. See, National Institute of Neurological Disorders and Stroke (NINDS). User Manual for the Quality of Life in Neurological Disorders (Neuro-QoL) Measures, Version 2.0, March 2015, which is incorporated herein by reference in its entirety.
A Phase 3, randomized, double-blind, placebo-controlled study to evaluate the efficacy, safety, and tolerability of once-daily valbenazine in subjects with HD was conducted. The study included a 4-week screening period, an 8-week dose-adjustment period, a 4-week maintenance period, and a final study visit 2 weeks following the final dose of study drug. […]

subjects with HD [2] = assay: Phase 3 study: Patient Global Impression of Severity (PGI-S)
Text: (§1) Exploratory endpoints included: • Wearable movement sensors (in select sites; optional participation) using MC10 Inc., BIOSTAMP® NPOINT® system • Huntington Disease Health Index • Changes from the screening period baseline to each postbaseline study visit (Weeks 2 through 12) in the TMC based on site assessments • Changes from the screening period baseline to maintenance (the average of the Week 10 and Week 12 assessments) in the TMC based on video recording central rater assessments • CGI-C response at Weeks 2 through 10 • PGI-C response at Weeks 2 through 10 • The change from baseline to Weeks 4, 8, and 10 in the Neuro-QoL Upper Extremity Function T-score. • The change from baseline to Weeks 4, 8, and 10 in the Neuro-QoL Lower Extremity Function T-score • CGI-S at Weeks 2 through 12 • PGI-S at Weeks 2 through 12 • SF-36 at Week 12 • HD-HI at Week 10 and Week 12 • EQ-5D-5L at Week 10 and Week 12 • UHDRS scores for motor, behavior, and functional capacity assessment at Weeks 2 through 12 • Other UHDRS scores including functional assessment and independence scale at Week 12 • AS at Week 12 • Change from screening period in physical activity by movement sensors at the Week 10 visit period
Subjects rated the severity of their chorea at scheduled visits on a 5-point scale. The PGI-S was analyzed using the same methods as the CGI-S.

subjects with HD [3] = assay: Phase 3 study: Short Form 36 Health Survey (SF-36); details: Week 12
Text: as §1
The SF-36 is 36-item questionnaire that measures health on 8 dimensions. […]

subjects with HD [4] = assay: Phase 3 study: UHDRS total motor score (TMS); details: MMRM model; valbenazine vs placebo
Text: As used herein, “Unified Huntington Disease Rating Scale” or “UHDRS” is the standard clinical assessment tool in Huntington disease. The UHDRS is divided into four domains: motor performance, cognitive function, behavioral abnormalities, and functional abilities. The motor section consists of 31 items assessing oculomotor, bradykinesia/rigidity, dystonia, chorea, and gait/balance. The items are rated from zero to four, with zero indicating normal findings and four indicating severe abnormalities. The range of the Total Motor Score (TMS) is 0 to 124, with higher scores indicating more severe motor impairment. The cognitive component includes the verbal fluency test, the symbol digit modalities test, and the Stroop test (color naming, word reading, and interference). Lower scores indicate worse cognitive performance. The behavioral assessment measures the frequency and severity of 11 items, which are rated from zero (almost never/absent) to four (almost always/severe). The items assess depression, anxiety, aggression, psychosis, and other behavioral abnormalities. The behavioral score ranges from 0 to 88, with higher scores indicating more severe psychiatric abnormalities. The functional domain comprises three components, namely the total functional capacity (TFC), the functional assessment scale (FAS), and the independence scale (IS). […]

subjects with HD [5] = assay: Phase 3 study: UHDRS functional assessment, independence scale, total functional capacity; details: baseline to Week 12; either treatment group
Text: as §1
The functional capacity portion of the UHDRS consists of 5 items. […]

## COc1cc2c(cc1OC)[C@H]1C[C@@H](OC(=O)[C@@H](N)C(C)C)[C@H](CC(C)C)CN1CC2 [Valbenazine, (S)-2-amino-3-methyl-butyric acid (2R,3R,11bR)-3-isobutyl-9,10-dimethoxy-1,3,4,6,7,11b-hexahydro-2H-pyrido[2,1-a]isoquinolin-2-yl ester]
Subjects with HD [1]; valbenazine group
  Neuro-QoL Upper Extremity Function T Score CFB @ week 12, LS Mean: −1.58
Subjects with HD [1]; valbenazine vs placebo
  Neuro-QoL Upper Extremity Function T Score CFB @ week 12, LS Mean, Difference: 1.42
Subjects with HD [2]; Week 12
  PGI-S: proportion of valbenazine-treated subjects who had no chorea symptoms: chorea symptoms increased to about 27% from about 9% at baseline,
  PGI-S: proportion of valbenazine-treated subjects with moderate symptoms: ~29%
  PGI-S: severe or very severe symptoms: No valbenazine-treated subject had severe
Subjects with HD [2]; Week 12 (remained consistent from baseline)
  PGI-S: proportion of valbenazine-treated subjects with mild symptoms: 45%), and the proportion with moderate symptoms decreased from
Subjects with HD [3]
  SF-36 subscales and summary scales, differences between treatment groups: No notable differences were observed at Week 12 between treatment
Subjects with HD [3]; valbenazine group
  SF-36 subscales or summary scales, worsening from baseline: No worsening from baseline was observed for the valbenazine group
Subjects with HD [4]
  TMS score LS mean difference, change from screening period baseline to maintenance: groups: LS mean difference −3.99 (95% CI: −6.27, −1.70); p = 0.0008
Subjects with HD [5]
  UHDRS functional assessment, independence, and total functional capacity scores, changes from baseline: No clinically meaningful changes were noted from baseline to Week
